O=c1cc(-c2ccc(O)cc2)oc2cc(O)cc(O)c12
solubility (mole fraction)
Details | in acetone | in ethanol | in ethyl acetate | in methanol | in n-butanol | in n-propanol | in water
288.2 K | 0.000338 | 0.000244 | 0.000172 | 0.000118 | 0.000478 | 0.000343 | 7e-07
298.2 K | 0.000367 | 0.000295 | 0.000239 | 0.000148 | 0.000568 | 0.000401 | 1.03e-06
308.2 K | 0.000451 | 0.000346 | 0.000323 | 0.000179 | 0.0007 | 0.000473 | 1.57e-06
318.2 K | 0.00054 | 0.000397 | 0.000442 | 0.000219 | 0.000822 | 0.000564 | 2.11e-06
328.2 K | 0.000654 | 0.000449 | 0.000548 | 0.000254 | 0.000934 | 0.000677 | 2.81e-06
